# Test results published in US12178841B2, “Treatment of non-cystic fibrosis bronchiectasis” (priority 2021, dated 2024).
# Entries after “also recorded” stand apart in the source; their conditions may differ. Where two headings read alike, the source gives them in different places.
# Columns and labels:
# [1] = PROMIS I Phase III clinical study: pulmonary exacerbations under inhaled CMS by I-neb vs placebo; type: in vivo, human
# Pseudomonas aeruginosa = assay: PROMIS I: Pseudomonas aeruginosa density in sputum; type: in vivo, human; settings: for Mean change from baseline in P. aeruginosa density (mITT): n = 176
# Text: Least square means in each treatment group, least square mean difference between treatments, their 95% CIs and associated p-values will be estimated.
# Summary statistics of the P. aeruginosa density (log 10 CFU/g sputum) and change from baseline (Visit 2) will be provided by treatment group for each trial visit.
# Results of the quantitative analysis for P. aeruginosa density will be presented as colony forming units (CFU) count per gram sputum.
# [2] = set-up: species or system human; settings: in vivo
# Text: Safety Variables • incidence of TEAEs; • absolute changes in percent-predicted FEV1 from baseline (Visit 2) to end of treatment (Visit 7); • number of subjects experiencing bronchospasm clinically or spirometrically determined following IMP administration at the start and end of treatment; • P. aeruginosa resistance to colistin sulphate as determined by in-vitro susceptibility testing on sputum from Screening/Randomisation (Visit 1/Visit 2) to Visits 3, 5 and end of treatment (Visit 7) as well as on sputum from Exacerbation Visits and clinic visits due to pneumonia; • emergence of other bacterial colonies and any developing resistance in sputum from Screening (Visit 1) to End of Treatment (Visit 7); • haematology, clinical chemistry and renal function tests; • physical examination and vital signs data; • 12-lead electrocardiogram
# [3] = 1 MIU [33 mg CBA] via I-neb twice a day, up to 6 months, placebo 0.45% saline, cited from earlier work
# [4] = human, in vivo; cited from earlier work
# [5] = ORBIT-3 and RESPIRE-2 trials; cited from earlier work
Molecule,"annual rate of exacerbations ([1]; CMS 1 MIU (33 mg CBA) by I-neb twice a day, 12 months, placebo 0.95)","severe exacerbations (requiring intravenous antibiotics and/or hospitalization), RR ([1]; CMS I-neb vs placebo, 95% CI 0.23-0.74, p=0.003)","time to first exacerbation, Hazard Ratio (HR) ([1]; CMS I-neb vs placebo, 95% CI 0.43-0.81, p=0.00074)","rate ratio (RR) of annual rate of exacerbations vs placebo ([1]; CMS I-neb vs placebo, 95% CI 0.46-0.82, p=0.00101)",Mean change from baseline in P. aeruginosa density (mITT) (Pseudomonas aeruginosa; Visit 3 (28 days)),Mean change from baseline in P. aeruginosa density (mITT) (Pseudomonas aeruginosa; Visit 5 (6 months)),Mean change from baseline in P. aeruginosa density (mITT) (Pseudomonas aeruginosa; Visit 6 (9 months)),"Mean change from baseline in P. aeruginosa density (mITT) (Pseudomonas aeruginosa; Visit 7 (12 months/EOT), includes those who discontinued early)",P. aeruginosa density (in words) (Pseudomonas aeruginosa; patients on colistimethate sodium over the study),broncospasm experienced clinically [2],safety and tolerability (in words) [2],time to first exacerbation (primary endpoint) vs placebo [3],time to first exacerbation (primary endpoint) vs placebo ([3]; listed as CMS),"adverse respiratory effects (cough, dyspnoea, bronchospasm, sore throat), people affected [4]",primary endpoints [5]
colistimethate sodium,0.58 per patient per year,0.41,0.59,0.61,−1.59 log10(CFU/mL),−1.39 log10(CFU/mL),−1.56 log10(CFU/mL),−0.86 log10(CFU/mL),fell rapidly and remained suppressed; also recorded: falls rapidly and remains suppressed,0.6%,safe and well tolerated,not statistically different,failed to achieve its primary endpoint,at least 1 in 10,
O=C(O)c1cn(C2CC2)c2cc(N3CCNCC3)c(F)cc2c1=O [ciprofloxacin],,,,,,,,,,,,,,,failed to achieve their primary endpoints
colistin,,,,,,,,,,,,not to be associated with a statistically significant improvement,,,
